From ChEMBL document CHEMBL5113441, “Exploration of 4-(1H-indol-3-yl)cyclohex-3-en-1-amine analogues as HDAC inhibitors: Design, synthesis, biological evaluation and modelling studies” (Bioorg Med Chem Lett, 2022)
Activity calls are given as the source filed them. The rule behind the calls is not given here.

Columns and labels:
Type in all cases: functional, cell-based
HCT-116 [1] = test: Antiproliferative activity against human HCT-116 cells measured after 72 hrs; conditions: HCT-116, 72 h
SW480 = test: Antiproliferative activity against human SW480 cells measured after 72 hrs; conditions: SW480, 72 h
MCF7 = test: Antiproliferative activity against human MCF7 cells measured after 72 hrs; conditions: MCF7, 72 h
A549 = test: Antiproliferative activity against human A549 cells measured after 72 hrs; conditions: A549, 72 h
HCT-116 [2] = test: Induction of apoptosis in human HCT-116 cells at 2000 nM measured after 48 hrs by Annexin-FITC/propidium iodide staining based flow cytometry

Compound | IC50 (HCT-116 [1]) [nM] | IC50 (SW480) [nM] | IC50 (MCF7) [nM] | IC50 (A549) [nM] | Activity (HCT-116 [2])
Cc1ccc2[nH]cc(C3=CCN(Cc4ccc(OCC(=O)NO)cc4F)CC3)c2c1 | 1450 | 1950 |  |  | 
O=C(COc1ccc(CN2CC=C(c3c[nH]c4ccc(F)cc34)CC2)c(F)c1)NO | > 5000 | 3860 |  |  | 
COc1cc(OCC(=O)NO)ccc1CNCCn1cnc2ccccc21 | > 10000 |  | > 10000 |  | 
O=C(COc1ccc(CNCCc2c[nH]c3ccccc23)cc1F)NO | 162 |  | 155 |  | 
O=C(CCCCCCC(=O)Nc1ccccc1)NO [VORINOSTAT] |  | 2120 |  |  | Active
Cc1ccc2[nH]cc(C3=CCN(Cc4ccc(OCC(=O)NO)cc4)CC3)c2c1 | 632 | 3960 |  |  | 
O=C(COc1ccc(CNCCn2cnc3ccccc32)c(F)c1)NO | 410 |  | 539 |  | 
O=C(COc1cccc(CNCCc2c[nH]c3ccccc23)c1)NO | 2610 |  | 2330 |  | 
O=C(COc1ccc(CN2CC=C(c3c[nH]c4cccc(F)c34)CC2)c(F)c1)NO | 1220 | 5560 |  |  | 

Continued, in another order:

IC50 (HCT-116 [1]) [nM] | IC50 (SW480) [nM] | IC50 (MCF7) [nM] | IC50 (A549) [nM] | Compound | Activity (HCT-116 [2])
> 5000 | > 5000 |  |  | Cc1[nH]c2ccccc2c1C1=CCC(NC(=O)c2ccc(OCC(=O)NO)cc2)CC1 (stereo unspecified) | 
436 | 1150 | 1170 | 278 | O=C(COc1ccc(CNC2CC=C(c3c[nH]c4ccccc34)CC2)c(F)c1)NO (stereo unspecified) | 
> 5000 | > 5000 |  |  | O=C(COc1ccc(C(=O)N2CC=C(c3c[nH]c4ccc(F)cc34)CC2)cc1)NO | 
173 | 189 | 915 | 203 | O=C(COc1ccc(CNC2CC=C(c3c[nH]c4cccc(F)c34)CC2)c(F)c1)NO (stereo unspecified) | 
184 | 367 | 898 | 187 | Cc1[nH]c2ccccc2c1C1=CCC(NCc2ccc(OCC(=O)NO)cc2)CC1 (stereo unspecified) | 
445 | 2780 |  |  | Cc1ccc2[nH]cc(C3=CCC(NCc4ccc(OCC(=O)NO)cc4F)CC3)c2c1 (stereo unspecified) | 
